Peptide text beside a SMILES is read from it.
How the values were obtained:
Test in all cases: biochemical
Assay type in all cases: binding, BALB/c mouse
H2-D^d = H2-D^d (Mus musculus, UniProt P01900)
H2-K^d = H2-K^d (Mus musculus, UniProt P01902)
H2-L^d = H2-L^d (Mus musculus, UniProt P01897)
I-A^d = target: T1, I-A^d (Mus musculus, UniProt P01921+P04228); details: Binding Assay IC50, I-A^d (membrane 15mers)
T1 sequence (P04228 24-256): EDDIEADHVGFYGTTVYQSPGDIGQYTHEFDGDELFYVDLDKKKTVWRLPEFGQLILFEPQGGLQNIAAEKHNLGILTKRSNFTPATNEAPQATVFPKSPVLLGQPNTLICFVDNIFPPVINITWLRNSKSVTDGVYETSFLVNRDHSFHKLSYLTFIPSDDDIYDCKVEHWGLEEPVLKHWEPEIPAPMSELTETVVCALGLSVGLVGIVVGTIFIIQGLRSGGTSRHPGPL
T1 sequence (P01921 28-265): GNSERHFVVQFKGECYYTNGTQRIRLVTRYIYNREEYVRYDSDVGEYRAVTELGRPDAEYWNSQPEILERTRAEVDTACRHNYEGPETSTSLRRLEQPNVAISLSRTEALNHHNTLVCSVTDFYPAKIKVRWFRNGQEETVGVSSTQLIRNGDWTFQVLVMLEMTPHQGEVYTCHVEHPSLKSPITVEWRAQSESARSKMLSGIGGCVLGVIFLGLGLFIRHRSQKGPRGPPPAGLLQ

I-E^d = target: T2, I-E^d (Mus musculus, UniProt P01904+P01915)
T2 sequence (P01904 26-255): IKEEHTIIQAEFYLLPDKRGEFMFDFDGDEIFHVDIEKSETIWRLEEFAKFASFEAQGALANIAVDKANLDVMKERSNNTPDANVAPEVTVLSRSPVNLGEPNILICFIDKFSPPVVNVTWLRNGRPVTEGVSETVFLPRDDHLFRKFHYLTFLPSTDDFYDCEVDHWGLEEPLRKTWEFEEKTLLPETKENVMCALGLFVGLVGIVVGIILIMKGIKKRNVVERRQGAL
T2 sequence (P01915 27-264 limits assumed): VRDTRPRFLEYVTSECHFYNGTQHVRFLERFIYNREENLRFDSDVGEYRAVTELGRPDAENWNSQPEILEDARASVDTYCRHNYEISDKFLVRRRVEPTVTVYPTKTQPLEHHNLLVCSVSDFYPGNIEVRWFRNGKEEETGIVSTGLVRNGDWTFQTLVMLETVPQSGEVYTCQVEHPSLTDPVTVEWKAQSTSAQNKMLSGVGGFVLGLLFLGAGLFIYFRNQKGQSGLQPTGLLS

Chain of H2-L^d (P01897 25-362): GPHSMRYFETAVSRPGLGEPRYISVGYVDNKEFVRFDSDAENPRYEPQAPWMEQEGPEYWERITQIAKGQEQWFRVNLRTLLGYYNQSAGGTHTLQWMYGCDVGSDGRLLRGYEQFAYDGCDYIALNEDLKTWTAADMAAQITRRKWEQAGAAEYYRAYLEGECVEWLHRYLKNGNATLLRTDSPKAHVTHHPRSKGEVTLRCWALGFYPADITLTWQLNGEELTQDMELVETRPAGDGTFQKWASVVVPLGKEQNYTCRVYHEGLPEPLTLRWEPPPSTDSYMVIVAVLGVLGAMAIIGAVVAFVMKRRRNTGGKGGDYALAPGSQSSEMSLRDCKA
Chain of H2-L^d (P61769 21-119 partner): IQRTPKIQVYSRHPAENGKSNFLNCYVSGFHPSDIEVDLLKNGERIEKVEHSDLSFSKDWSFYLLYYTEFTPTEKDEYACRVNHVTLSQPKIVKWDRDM
Chain of H2-K^d (P01902 22-368): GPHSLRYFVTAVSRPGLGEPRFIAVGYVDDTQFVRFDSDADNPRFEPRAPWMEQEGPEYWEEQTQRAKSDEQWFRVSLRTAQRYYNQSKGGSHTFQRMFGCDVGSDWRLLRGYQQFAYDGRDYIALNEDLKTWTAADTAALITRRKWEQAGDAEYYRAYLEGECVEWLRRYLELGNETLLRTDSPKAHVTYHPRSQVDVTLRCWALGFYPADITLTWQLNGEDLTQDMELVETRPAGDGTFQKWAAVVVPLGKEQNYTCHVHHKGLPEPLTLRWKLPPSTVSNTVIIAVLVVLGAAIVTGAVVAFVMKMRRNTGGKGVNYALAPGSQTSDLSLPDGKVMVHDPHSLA
Chain of H2-K^d (P61769 21-119 partner): as the sequence (P61769 21-119 partner) above
Chain of H2-D^d (P01900 25-365): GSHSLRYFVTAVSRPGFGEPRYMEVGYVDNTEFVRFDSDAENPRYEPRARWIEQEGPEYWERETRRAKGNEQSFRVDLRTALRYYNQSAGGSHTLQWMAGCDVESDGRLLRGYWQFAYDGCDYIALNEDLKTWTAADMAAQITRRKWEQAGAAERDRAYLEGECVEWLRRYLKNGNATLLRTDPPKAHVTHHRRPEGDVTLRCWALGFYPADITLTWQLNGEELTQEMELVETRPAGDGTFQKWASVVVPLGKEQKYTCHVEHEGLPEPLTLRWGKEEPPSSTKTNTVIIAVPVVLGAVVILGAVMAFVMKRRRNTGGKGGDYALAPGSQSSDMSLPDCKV
Chain of H2-D^d (P61769 21-119 partner): as the sequence (P61769 21-119 partner) above

Row | Compound | IC50 (H2-D^d) [µM] | IC50 (H2-K^d) [µM] | IC50 (H2-L^d) [µM] | IC50 (I-A^d) [µM] | IC50 (I-E^d) [µM]
1 | CC(C)C[C@H](NC(=O)[C@@H](NC(=O)[C@H](C)NC(=O)[C@H](CC(N)=O)NC(=O)[C@H](Cc1ccc(O)cc1)NC(=O)[C@H](CS)NC(=O)[C@@H](N)C(C)C)C(C)C)C(=O)N[C@H](C(=O)N[C@@H](Cc1c[nH]cn1)C(=O)O)[C@@H](C)O [E59–67] (H-VCYNAVLTH-OH) | > 70 | 0.211 | 55.4 | – | –
2 | CC(C)C[C@H](NC(=O)[C@@H](NC(=O)[C@H](C)NC(=O)[C@H](CC(N)=O)NC(=O)[C@@H](N)Cc1ccc(O)cc1)C(C)C)C(=O)N[C@H](C(=O)N[C@@H](Cc1c[nH]cn1)C(=O)N[C@H](C(=O)N[C@@H](CCCCN)C(=O)O)C(C)C)[C@@H](C)O [E61–69] (H-YNAVLTHVK-OH) | > 70 | 0.093 | > 70 | – | –
3 | CC[C@H](C)[C@H](NC(=O)[C@@H](NC(=O)[C@@H]1CCCN1)C(C)C)C(=O)N[C@H](C(=O)N[C@@H](C)C(=O)N[C@@H](CC(=O)O)C(=O)N[C@@H](CC(=O)O)C(=O)N[C@@H](CC(C)C)C(=O)N[C@H](C(=O)O)[C@@H](C)O)C(C)C [E333–341] (H-PVIVADDLT-OH) | > 70 | > 70 | 3.72 | – | –
4 | CC[C@H](C)[C@H](N)C(=O)N[C@H](C(=O)N[C@@H](C)C(=O)N[C@@H](CC(=O)O)C(=O)N[C@@H](CC(=O)O)C(=O)N[C@@H](CC(C)C)C(=O)N[C@H](C(=O)N[C@@H](C)C(=O)N[C@@H](C)C(=O)O)[C@@H](C)O)C(C)C [E335–343] (H-IVADDLTAA-OH) | > 70 | > 70 | 38 | – | –
5 | CC(C)C[C@H](NC(=O)[C@@H](NC(=O)[C@H](C)NC(=O)[C@H](CC(N)=O)NC(=O)[C@H](Cc1ccc(O)cc1)NC(=O)[C@H](CS)NC(=O)[C@@H](NC(=O)[C@H](CCCCN)NC(=O)[C@@H](N)CCCNC(=N)N)C(C)C)C(C)C)C(=O)O [E57–65] | > 70 | > 70 | 39.4 | – | –
6 | CC[C@H](C)[C@H](N)C(=O)N1CCC[C@H]1C(=O)N[C@H](C(=O)N[C@H](C(=O)N[C@H](C(=O)N[C@@H](C)C(=O)N[C@@H](CC(=O)O)C(=O)N[C@@H](CC(=O)O)C(=O)N[C@@H](CC(C)C)C(=O)O)C(C)C)[C@@H](C)CC)C(C)C [E332–340] (H-IPVIVADDL-OH) | > 70 | 33 | 0.056 | – | –
7 | CC[C@H](C)[C@H](NC(=O)[C@H](CCCCN)NC(=O)[C@@H](NC(=O)[C@H](Cc1c[nH]cn1)NC(=O)[C@@H](NC(=O)[C@H](CC(C)C)NC(=O)[C@@H](NC(=O)[C@H](C)NC(=O)[C@@H](N)CC(N)=O)C(C)C)[C@@H](C)O)C(C)C)C(=O)O [E62–70] (H-NAVLTHVKI-OH) | > 70 | 1.54 | > 70 | – | –
8 | CC[C@H](C)[C@H](NC(=O)[C@@H](N)C(C)C)C(=O)N[C@H](C(=O)N[C@@H](C)C(=O)N[C@@H](CC(=O)O)C(=O)N[C@@H](CC(=O)O)C(=O)N[C@@H](CC(C)C)C(=O)N[C@H](C(=O)N[C@@H](C)C(=O)O)[C@@H](C)O)C(C)C [E334–342] (H-VIVADDLTA-OH) | > 70 | > 70 | 19.2 | – | –
9 | CC(C)C[C@H](NC(=O)[C@@H](NC(=O)[C@H](C)NC(=O)[C@H](CC(N)=O)NC(=O)[C@H](Cc1ccc(O)cc1)NC(=O)[C@@H](N)CS)C(C)C)C(=O)N[C@H](C(=O)N[C@@H](Cc1c[nH]cn1)C(=O)N[C@H](C(=O)O)C(C)C)[C@@H](C)O [E60–68] (H-CYNAVLTHV-OH) | > 70 | 0.001 | > 70 | – | –
10 | CC(C)C[C@H](NC(=O)CNC(=O)[C@H](Cc1c[nH]cn1)NC(=O)[C@H](CC(N)=O)NC(=O)[C@H](CCC(=O)O)NC(=O)[C@H](Cc1c[nH]cn1)NC(=O)[C@@H](NC(=O)[C@@H]1CCCN1)[C@@H](C)O)C(=O)N[C@@H](CCCCN)C(=O)N[C@H](C(=O)N[C@@H](CCCNC(=N)N)C(=O)N[C@@H](CCC(N)=O)C(=O)N[C@@H](CCC(=O)O)C(=O)N[C@@H](CCCCN)C(=O)N[C@@H](Cc1c[nH]c2ccccc12)C(=O)O)[C@@H](C)O [M5–19] | – | – | – | 13.2 | > 45
11 | CC[C@H](C)[C@H](NC(=O)[C@@H](NC(=O)[C@@H](N)C(C)C)C(C)C)C(=O)N[C@@H](C)C(=O)N[C@@H](CC(C)C)C(=O)N[C@@H](CC(C)C)C(=O)N[C@H](C(=O)N[C@@H](CC(C)C)C(=O)N[C@@H](C)C(=O)N[C@H](C(=O)NCC(=O)N1CCC[C@H]1C(=O)N[C@@H](C)C(=O)N[C@@H](Cc1ccc(O)cc1)C(=O)N[C@@H](CO)C(=O)O)C(C)C)C(C)C [M61–75] | – | – | – | 0.38 | > 45
12 | CC[C@H](C)[C@H](NC(=O)[C@@H](NC(=O)[C@H](CC(C)C)NC(=O)[C@H](C)NC(=O)[C@@H](NC(=O)[C@@H](NC(=O)[C@H](C)NC(=O)[C@H](Cc1ccccc1)NC(=O)[C@H](Cc1ccccc1)NC(=O)[C@@H]1CCCN1C(=O)[C@H](CC(N)=O)NC(=O)[C@H](CCCNC(=N)N)NC(=O)[C@@H](N)C(C)C)C(C)C)[C@@H](C)O)[C@@H](C)O)C(=O)N[C@@H](C)C(=O)N[C@@H](Cc1ccc(O)cc1)C(=O)O [M37–51] | – | – | – | 0.04 | 1.92
13 | CC[C@H](C)[C@H](NC(=O)[C@@H](NC(=O)[C@@H](NC(=O)[C@H](CCCNC(=N)N)NC(=O)[C@H](CCC(N)=O)NC(=O)[C@@H](NC(=O)[C@@H](N)CCSC)[C@@H](C)O)C(C)C)C(C)C)C(=O)N[C@@H](C)C(=O)N[C@@H](CC(C)C)C(=O)N[C@@H](CC(C)C)C(=O)N[C@H](C(=O)N[C@@H](CC(C)C)C(=O)N[C@@H](C)C(=O)N[C@H](C(=O)NCC(=O)O)C(C)C)C(C)C [M57–71] | – | – | – | 6.48 | > 45
14 | CSCC[C@H](NC(=O)[C@H](CCCNC(=N)N)NC(=O)CNC(=O)[C@@H](NC(=O)[C@H](CCSC)NC(=O)[C@H](Cc1c[nH]c2ccccc12)NC(=O)[C@H](CCCCN)NC(=O)[C@@H](N)CCC(=O)O)[C@@H](C)O)C(=O)NCC(=O)N[C@@H](CCC(=O)O)C(=O)N[C@@H](CCCNC(=N)N)C(=O)N[C@@H](CCC(N)=O)C(=O)N[C@@H](CC(C)C)C(=O)N[C@@H](CCC(N)=O)C(=O)N[C@@H](CCCCN)C(=O)O [M17–31] | – | – | – | 20.4 | 20.7
15 | CC[C@H](C)[C@H](NC(=O)[C@H](CCCCN)NC(=O)[C@@H](NC(=O)[C@H](Cc1c[nH]cn1)NC(=O)[C@@H](NC(=O)[C@H](CC(C)C)NC(=O)[C@@H](NC(=O)[C@H](C)N)C(C)C)[C@@H](C)O)C(C)C)C(=O)N[C@@H](CC(N)=O)C(=O)O [E63–71] (H-AVLTHVKIN-OH) | > 70 | 54.7 | 20.7 | – | –
16 | CC[C@H](C)[C@H](NC(=O)[C@@H](NC(=O)[C@@H]1CCCN1C(=O)[C@@H](NC(=O)[C@H](CCCNC(=N)N)NC(=O)[C@@H](N)CS)[C@@H](C)CC)C(C)C)C(=O)N[C@H](C(=O)N[C@@H](C)C(=O)N[C@@H](CC(=O)O)C(=O)O)C(C)C [E330–338] (H-CRIPVIVAD-OH) | > 70 | 0.915 | 54.2 | – | –
17 | CC[C@H](C)[C@H](NC(=O)[C@H](CCCCN)NC(=O)[C@H](CCC(N)=O)NC(=O)[C@@H](N)CC(C)C)C(=O)N[C@@H](CCC(=O)O)C(=O)N[C@@H](CCCNC(=N)N)C(=O)N[C@@H](Cc1c[nH]c2ccccc12)C(=O)N[C@@H](Cc1ccccc1)C(=O)N[C@H](C(=O)N[C@@H](CCCNC(=N)N)C(=O)N[C@@H](CC(N)=O)C(=O)N1CCC[C@H]1C(=O)N[C@@H](Cc1ccccc1)C(=O)N[C@@H](Cc1ccccc1)C(=O)N[C@@H](C)C(=O)O)C(C)C [M29–43] | – | – | – | 0.593 | 1.56

From paper PMC2615555 (Virology, 2008)
